In PubChem BioAssay (NCI):
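Each compound was tested at five concentrations against cells in 96-well plates for 48 hours. TGI: total growth inhibition.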

Columns and labels:
Test in all cases: NCI anticancer screen, dose series, 48 h
786-0 renal = tested on: 786-0 renal
A498 renal = tested on: A498 renal
A549 NSCLC = tested on: A549 NSCLC
ACHN renal = tested on: ACHN renal
CAKI-1 renal = tested on: CAKI-1 renal
CCRF-CEM leukemia = tested on: CCRF-CEM leukemia
COLO 205 colon = tested on: COLO 205 colon
DU-145 prostate = tested on: DU-145 prostate
EKVX NSCLC = tested on: EKVX NSCLC
HCC-2998 colon = tested on: HCC-2998 colon
HCT-116 colon = tested on: HCT-116 colon
HCT-15 colon = tested on: HCT-15 colon
HL-60(TB) leukemia = tested on: HL-60(TB) leukemia
HOP-62 NSCLC = tested on: HOP-62 NSCLC
HOP-92 NSCLC = tested on: HOP-92 NSCLC
HS 578T breast = tested on: HS 578T breast
HT29 colon = tested on: HT29 colon
IGROV1 ovarian = tested on: IGROV1 ovarian
K-562 leukemia = tested on: K-562 leukemia
KM12 colon = tested on: KM12 colon
LOX IMVI melanoma = tested on: LOX IMVI melanoma
M14 melanoma = tested on: M14 melanoma
MALME-3M melanoma = tested on: MALME-3M melanoma
MCF7 breast = tested on: MCF7 breast
MDA-MB-231 breast = tested on: MDA-MB-231 breast
MDA-MB-435 = tested on: MDA-MB-435
MDA-N = tested on: MDA-N
MOLT-4 leukemia = tested on: MOLT-4 leukemia
NCI-H226 lung = tested on: NCI-H226 lung
NCI-H460 lung = tested on: NCI-H460 lung
NCI-H522 lung = tested on: NCI-H522 lung
NCI/ADR-RES ovarian = tested on: NCI/ADR-RES ovarian
OVCAR-3 ovarian = tested on: OVCAR-3 ovarian
OVCAR-4 ovarian = tested on: OVCAR-4 ovarian
OVCAR-5 ovarian = tested on: OVCAR-5 ovarian
OVCAR-8 ovarian = tested on: OVCAR-8 ovarian
RPMI-8226 leukemia = tested on: RPMI-8226 leukemia
RXF 393 renal = tested on: RXF 393 renal
SF-268 CNS = tested on: SF-268 CNS
SF-295 CNS = tested on: SF-295 CNS
SF-539 CNS = tested on: SF-539 CNS
SK-MEL-2 melanoma = tested on: SK-MEL-2 melanoma
SK-MEL-28 melanoma = tested on: SK-MEL-28 melanoma
SK-MEL-5 melanoma = tested on: SK-MEL-5 melanoma
SK-OV-3 ovarian = tested on: SK-OV-3 ovarian
SN12C renal = tested on: SN12C renal
SNB-75 CNS = tested on: SNB-75 CNS
SR leukemia = tested on: SR leukemia
SW-620 colon = tested on: SW-620 colon
T-47D breast = tested on: T-47D breast
TK-10 renal = tested on: TK-10 renal
UACC-257 melanoma = tested on: UACC-257 melanoma
UACC-62 melanoma = tested on: UACC-62 melanoma
NCI-H23 lung = tested on: NCI-H23 lung
PC-3 prostate = tested on: PC-3 prostate
SNB-19 CNS = tested on: SNB-19 CNS
U251 CNS = tested on: U251 CNS
UO-31 renal = tested on: UO-31 renal

`CC[C@H](C)[C@H]1NC(=O)[C@@H](NC(=O)[C@@H](CC(C)C)N(C)C(=O)C2CCCN2C(=O)[C@H](C)O)[C@@H](C)OC(=O)[C@@H]2Cc3ccccc3CN2C(=O)[C@@H]2CCCN2C(=O)[C@H](CC(C)C)NC(=O)[C@@H](C)C(=O)[C@H](C(C)C)OC(=O)C[C@@H]1O` (some centres not stated) showed a TGI (786-0 renal) of 11.1 µM, a TGI (A498 renal) of 5.96 µM and a TGI (A549 NSCLC) of 21.3 µM. For the same compound, the TGI (ACHN renal) was 15.5 µM, the TGI (CAKI-1 renal) was > 50 µM and the TGI (CCRF-CEM leukemia) was 1.66 µM. The TGI (COLO 205 colon) was 2.61 µM, the TGI (DU-145 prostate) was 6.31 µM and the TGI (EKVX NSCLC) was > 55 µM. For the same compound, the TGI (HCC-2998 colon) was 3.26 µM, the TGI (HCT-116 colon) was 5.08 µM and the TGI (HCT-15 colon) was > 100 µM. For the same compound, the TGI (HL-60(TB) leukemia) was 0.433 µM, the TGI (HOP-62 NSCLC) was 12 µM and the TGI (HOP-92 NSCLC) was 28.8 µM. For the same compound, the TGI (HS 578T breast) was > 38.4 µM, the TGI (HT29 colon) was 10.7 µM and the TGI (IGROV1 ovarian) was > 73.7 µM. For the same compound, the TGI (K-562 leukemia) was > 41.2 µM, the TGI (KM12 colon) was 5.13 µM and the TGI (LOX IMVI melanoma) was 9.11 µM. The TGI (M14 melanoma) was 13.3 µM, the TGI (MALME-3M melanoma) was 5.16 µM and the TGI (MCF7 breast) was 12.8 µM. The TGI (MDA-MB-231 breast) was 10.3 µM, the TGI (MDA-MB-435) was 8.1 µM and the TGI (MDA-N) was 12.5 µM. For the same compound, the TGI (MOLT-4 leukemia) was 5 µM, the TGI (NCI-H226 lung) was 6.4 µM and the TGI (NCI-H460 lung) was 5.09 µM. The TGI (NCI-H522 lung) was > 49.3 µM, the TGI (NCI/ADR-RES ovarian) was > 100 µM and the TGI (OVCAR-3 ovarian) was 6.68 µM. For the same compound, the TGI (OVCAR-4 ovarian) was > 25 µM, the TGI (OVCAR-5 ovarian) was 12.7 µM and the TGI (OVCAR-8 ovarian) was > 54.8 µM. The TGI (RPMI-8226 leukemia) was 10.4 µM, the TGI (RXF 393 renal) was 6.48 µM and the TGI (SF-268 CNS) was 6.34 µM. For the same compound, the TGI (SF-295 CNS) was > 28.6 µM, the TGI (SF-539 CNS) was 8.42 µM and the TGI (SK-MEL-2 melanoma) was 1.55 µM. The TGI (SK-MEL-28 melanoma) was 23.1 µM, the TGI (SK-MEL-5 melanoma) was 2.86 µM and the TGI (SK-OV-3 ovarian) was > 42 µM. For the same compound, the TGI (SN12C renal) was 5.56 µM, the TGI (SNB-75 CNS) was 1.94 µM and the TGI (SR leukemia) was 1.08 µM. For the same compound, the TGI (SW-620 colon) was > 42.6 µM, the TGI (T-47D breast) was > 100 µM and the TGI (TK-10 renal) was > 70.1 µM. The TGI (UACC-257 melanoma) was 6.11 µM and the TGI (UACC-62 melanoma) was 4.47 µM.
For `N#CCCC1(CCC#N)CCCCCCC(CCC#N)(CCC#N)C(=O)C1=O`, the TGI (786-0 renal) was > 100 µM, the TGI (A498 renal) was > 100 µM and the TGI (A549 NSCLC) was > 100 µM. The TGI (ACHN renal) was > 100 µM, the TGI (CAKI-1 renal) was > 100 µM and the TGI (COLO 205 colon) was > 100 µM. For the same compound, the TGI (DU-145 prostate) was > 100 µM, the TGI (EKVX NSCLC) was > 100 µM and the TGI (HCC-2998 colon) was > 100 µM. The TGI (HCT-116 colon) was > 100 µM, the TGI (HCT-15 colon) was > 100 µM and the TGI (HOP-62 NSCLC) was > 100 µM. The TGI (HOP-92 NSCLC) was > 100 µM, the TGI (HS 578T breast) was > 100 µM and the TGI (HT29 colon) was > 100 µM. The TGI (IGROV1 ovarian) was > 100 µM, the TGI (K-562 leukemia) was > 100 µM and the TGI (KM12 colon) was > 100 µM. For the same compound, the TGI (LOX IMVI melanoma) was > 100 µM, the TGI (M14 melanoma) was > 100 µM and the TGI (MALME-3M melanoma) was > 100 µM. The TGI (MCF7 breast) was > 100 µM, the TGI (MDA-MB-435) was > 100 µM and the TGI (MDA-N) was > 100 µM. For the same compound, the TGI (NCI-H23 lung) was > 100 µM, the TGI (NCI-H460 lung) was > 100 µM and the TGI (NCI-H522 lung) was > 100 µM. For the same compound, the TGI (NCI/ADR-RES ovarian) was > 100 µM, the TGI (OVCAR-3 ovarian) was > 100 µM and the TGI (OVCAR-4 ovarian) was > 100 µM. For the same compound, the TGI (OVCAR-5 ovarian) was > 100 µM, the TGI (OVCAR-8 ovarian) was > 100 µM and the TGI (PC-3 prostate) was > 100 µM. For the same compound, the TGI (RXF 393 renal) was > 100 µM, the TGI (SF-268 CNS) was > 100 µM and the TGI (SF-295 CNS) was > 100 µM. The TGI (SF-539 CNS) was > 100 µM, the TGI (SK-MEL-2 melanoma) was > 100 µM and the TGI (SK-MEL-28 melanoma) was > 100 µM. The TGI (SK-MEL-5 melanoma) was > 100 µM, the TGI (SK-OV-3 ovarian) was > 100 µM and the TGI (SN12C renal) was > 100 µM. For the same compound, the TGI (SNB-19 CNS) was > 100 µM, the TGI (SNB-75 CNS) was > 100 µM and the TGI (SR leukemia) was > 100 µM. The TGI (SW-620 colon) was > 100 µM, the TGI (T-47D breast) was > 100 µM and the TGI (TK-10 renal) was > 100 µM. The TGI (U251 CNS) was > 100 µM, the TGI (UACC-257 melanoma) was > 100 µM and the TGI (UACC-62 melanoma) was > 100 µM. For the same compound, the TGI (UO-31 renal) was 20.8 µM.
In the case of `Oc1ccc[n+](Cc2ccccc2)c1`, the TGI (786-0 renal) is reported as > 100 µM, the TGI (A498 renal) is reported as > 100 µM and the TGI (A549 NSCLC) is reported as > 100 µM. For the same compound, the TGI (ACHN renal) was > 100 µM, the TGI (CAKI-1 renal) was > 100 µM and the TGI (CCRF-CEM leukemia) was > 100 µM. For the same compound, the TGI (COLO 205 colon) was > 100 µM, the TGI (DU-145 prostate) was > 100 µM and the TGI (HCC-2998 colon) was > 100 µM. The TGI (HCT-116 colon) was > 100 µM, the TGI (HCT-15 colon) was > 100 µM and the TGI (HL-60(TB) leukemia) was > 100 µM. For the same compound, the TGI (HOP-62 NSCLC) was > 100 µM, the TGI (HS 578T breast) was > 100 µM and the TGI (HT29 colon) was > 100 µM. The TGI (K-562 leukemia) was > 100 µM, the TGI (KM12 colon) was > 100 µM and the TGI (LOX IMVI melanoma) was > 100 µM. For the same compound, the TGI (M14 melanoma) was > 100 µM, the TGI (MALME-3M melanoma) was > 100 µM and the TGI (MCF7 breast) was > 100 µM. For the same compound, the TGI (MDA-MB-231 breast) was > 100 µM, the TGI (MDA-MB-435) was > 100 µM and the TGI (MDA-N) was > 100 µM. The TGI (MOLT-4 leukemia) was > 100 µM, the TGI (NCI-H226 lung) was > 100 µM and the TGI (NCI-H23 lung) was > 100 µM. For the same compound, the TGI (NCI-H460 lung) was > 100 µM, the TGI (NCI-H522 lung) was > 100 µM and the TGI (NCI/ADR-RES ovarian) was > 100 µM. The TGI (OVCAR-3 ovarian) was > 100 µM, the TGI (OVCAR-5 ovarian) was > 100 µM and the TGI (OVCAR-8 ovarian) was > 100 µM. For the same compound, the TGI (PC-3 prostate) was > 100 µM, the TGI (RPMI-8226 leukemia) was > 100 µM and the TGI (RXF 393 renal) was > 100 µM. The TGI (SF-268 CNS) was > 100 µM, the TGI (SF-295 CNS) was > 100 µM and the TGI (SF-539 CNS) was > 100 µM. The TGI (SK-MEL-2 melanoma) was > 100 µM, the TGI (SK-MEL-28 melanoma) was > 100 µM and the TGI (SK-MEL-5 melanoma) was > 100 µM. The TGI (SK-OV-3 ovarian) was > 100 µM, the TGI (SN12C renal) was > 100 µM and the TGI (SNB-19 CNS) was > 100 µM. For the same compound, the TGI (SNB-75 CNS) was > 100 µM, the TGI (T-47D breast) was > 100 µM and the TGI (TK-10 renal) was > 100 µM. The TGI (U251 CNS) was > 100 µM, the TGI (UACC-257 melanoma) was > 100 µM and the TGI (UACC-62 melanoma) was > 100 µM. For the same compound, the TGI (UO-31 renal) was > 100 µM.
